The text below walks through data of US7713923B2, “Self-assembling peptides incorporating modifications and methods of use thereof” (Massachusetts Institute of Technology, priority 2003, dated 2010).

Series [1] is described as follows: Circular dichroism (secondary structure). Format: physicochemical. The conditions noted are these: 25 μM peptide in water, room temperature, 195-250 nm. Here is the method:
Circular dichroism (DC). CD spectra were gathered on an Aviv model 202 spectropolarimeter. Samples were prepared by diluting stock peptide solutions in water (0.5%) to a working concentration of 25 μM. Samples were analysed at room temperature in a quartz cuvette with a path length of 0.3 cm and in the wavelength range 195-250 nm.
Circular dichroism. CD spectra were obtained for each peptide sequence to assess its secondary structure. The secondary structure identifies ordered structures within a polypeptide such as α-helices and β-sheets. […] (Havel, 1996).

The test system of series [2] is human aortic endothelial cells (HAEC). The series can be described thus: HAEC monolayer formation on peptide scaffolds. As to conditions: for HAEC monolayer formation, Blending (9:1): RAD16-I: peptide sequence at a ratio 9:1 (v/v); for HAEC monolayer formation, peptide content 100%: scaffold of 100% peptide, 0.5% (w/v); for HAEC monolayer formation, peptide blends: 9:1 RAD16-I:modified peptide, seeded subconfluent (~30%). Further details: key to HAEC monolayer formation, peptide content 100% / HAEC monolayer formation, Blending (9:1): +: Score for optimal monolayer formation and cell survival; −: Score for poor or none monolayer formation and cell survival. It is filed as cell-based. Here is the method:
Endothelial cell culture system. Peptide scaffolds (0.5% w/v) were prepared at 100% peptide sequence for RAD16-I or blended with RAD16-I at a radio of 9:1 (RAD16-I: peptide sequence, on a volume/volume basis) for the three other cases (YIG, RYV, and TAG). Each solution was filtered (0.2 μm, Acrodysc filters, 4192, PALL, MI), loaded (30 μl) on top of a cell culture chamber insert (10 mm diameter, 136935, Nalge Nunc International, IL), and allowed to form a layer (average thickness=600 μm). Phosphate Buffer Saline (PBS) (600 μl) was added at the bottom of the well to induce hydrogel formation, and the system was incubated at room temperature for 30 min. PBS was replaced with culture medium, which was then replaced with fresh medium. The scaffolds were incubated for 1 hour with endothelial cell growth media (EGM-2, Cambrex, MD) in a cell culture incubator at 37° C. with 5% CO2.
(§1) Meanwhile, human aortic endothelial cells (HAEC) (CC-2535, Cambrex, MD) that had been maintained under standard culture conditions (passage 5-6) were harvested at 80% confluence using trypsin and loaded on top of the preformed peptide scaffolds at a cell density of 8×10^4 cells/cm^2 and cultured in the cell culture incubator at 37° C. with 5% CO2. Cell attachment assays were performed one hour after the initial cell loading. To perform the assays, the covering media was removed, and unattached cells were counted on a hematocytometer. Cell counting was performed by mechanically disrupting the scaffold containing cells by pipetting up and down and then counting cells on a hematocytometer after performing Trypan blue (T 9906, Sigma, MO) exclusion assay staining to assess cell viability. In some experiments, for comparison, EC were cultured on inserts coated with Matrigel or collagen (1.5 mg/ml, i.e. 0.15%) according to standard protocols.
In a first experiment, we tested the ability of HAEC to attach and form a monolayer when seeded on various peptide scaffolds generated by self-assembly of the peptides following addition of PBS to a 0.5%(w/v) solution of the peptide in water. […] HAEC cultured in the presence of scaffolds generated from peptides incorporating the other biologically active peptide motifs either died or formed isolated clusters (FIGS. 9A-9G).
We therefore decided to blend the peptides incorporating biologically active motifs with the prototypic RAD16-I sequence in order to reduce the overall concentration of the biologically active motif presented to cells. We selected a volume/volume ratio of 9:1 (RAD16-I:modified peptide sequence comprising biologically active peptide motif, where peptides were dissolved at equal concentrations on a w/w basis) and generated peptide scaffolds from solutions in which the unmodified and modified peptides were present in this ratio.

Series [3] shares this test system. The series can be described thus: HAEC attachment assay on peptide scaffolds. The conditions noted are these: after one hour; modified peptides as 9:1 blends with RAD16-I. Format: cell-based. On the procedure: as §1
Series [4] has the same test system. Briefly: NO release determination (Griess method). It is filed as cell-based. The conditions noted are these: nitrite in culture supernatant; RAD16-I 100%, others 9:1 blend. On the procedure:
NO release determination. Nitric oxide (NO) release was estimated by measuring nitrites (NOx) by the Griess method. Briefly, the media was replaced after the third day of culture by new media without fetal bovine serum (FBS) or ascorbic acid. The next day, the media was used to analyze NO release using a commercially available kit (482702, Calbiochem, CA) following the manufacturer instructions. Each condition was tested in triplicate.

Series [5] relates to chondrocytes. The conditions noted are these: encapsulated cells; cited from earlier work.
Series [6] relates to PC12 cells, endothelial cells, heparin. As to conditions: cited from earlier work.

With `CC(=O)N1CCC[C@H]1C(=O)N[C@@H](CC(=O)O)C(=O)N[C@@H](CO)C(=O)NCC(=O)N[C@@H](CCCNC(=N)N)C(=O)NCC(=O)NCC(=O)N[C@@H](CCCNC(=N)N)C(=O)N[C@@H](C)C(=O)N[C@@H](CC(=O)O)C(=O)N[C@@H](C)C(=O)N[C@@H](CCCNC(=N)N)C(=O)N[C@@H](C)C(=O)N[C@@H](CC(=O)O)C(=O)N[C@@H](C)C(=O)N[C@@H](CCCNC(=N)N)C(=O)N[C@@H](C)C(=O)N[C@@H](CC(=O)O)C(=O)N[C@@H](C)C(=O)N[C@@H](CCCNC(=N)N)C(=O)N[C@@H](C)C(=O)N[C@@H](CC(=O)O)C(=O)N[C@@H](C)C(N)=O` [PDS, AcN-PDSGR-GG-(RADA)4-CONH2], the “Secondary structure (CD)” value in series [1] is listed as “β-sheet”. Moreover, in series [2], the “HAEC monolayer formation, Blending (9:1)” value is “−” and the “HAEC monolayer formation, peptide content 100%” value is “−”.
`CC[C@H](C)[C@H](NC(=O)[C@H](Cc1ccc(O)cc1)NC(C)=O)C(=O)NCC(=O)N[C@@H](CO)C(=O)N[C@@H](CCCNC(=N)N)C(=O)NCC(=O)NCC(=O)N[C@@H](CCCNC(=N)N)C(=O)N[C@@H](C)C(=O)N[C@@H](CC(=O)O)C(=O)N[C@@H](C)C(=O)N[C@@H](CCCNC(=N)N)C(=O)N[C@@H](C)C(=O)N[C@@H](CC(=O)O)C(=O)N[C@@H](C)C(=O)N[C@@H](CCCNC(=N)N)C(=O)N[C@@H](C)C(=O)N[C@@H](CC(=O)O)C(=O)N[C@@H](C)C(=O)N[C@@H](CCCNC(=N)N)C(=O)N[C@@H](C)C(=O)N[C@@H](CC(=O)O)C(=O)N[C@@H](C)C(N)=O` [YIG, AcN-YIGSR-GG-(RADA)4-CONH2]: the “Secondary structure (CD)” value in series [1] is “β-sheet”. In addition, in series [2] (0.5% (w/v) peptide, no blending), the “HAEC monolayer formation, scaffold of 100% peptide” value is on record as “able to support the formation of a monolayer”. In series [2], the “HAEC monolayer formation, peptide blends” value was “readily supported monolayer formation”; the “HAEC monolayer formation, Blending (9:1)” value is listed as “+”; the “HAEC monolayer formation, peptide content 100%” value is given as “+”. The “HAEC attachment to the surface” value in series [3] is recorded as about 100%. The “nitric oxide (NO) release by HAEC” value in series [4] is “promote NO release”.
Take “Ac-KAFDITYVRLKFGGRADARADARADARADA-NH2 [KAF, AcN-KAFDITYVRLKF-GG-(RADA)4-CONH2]”: the “Secondary structure (CD)” value in series [1] is reported as “random coil”. In series [2], the “HAEC monolayer formation, Blending (9:1)” value is listed as “−” and the “HAEC monolayer formation, peptide content 100%” value is given as “−”.
On to “Ac-RYVVLPRGGRADARADARADARADA-NH2 [RYV, AcN-RYVVLPR-GG-(RADA)4-CONH2]”, for which, in series [1], the “Secondary structure (CD)” value is “β-sheet”. In series [2], the “HAEC monolayer formation, peptide blends” value was “readily supported monolayer formation”; the “HAEC monolayer formation, Blending (9:1)” value is reported as “+”; the “HAEC monolayer formation, peptide content 100%” value was “−”. In addition, the “HAEC attachment to the surface” value in series [3] is about 100%. For the same compound, in series [4], the “nitric oxide (NO) release by HAEC” value is “inhibits NO release”.
On to “Ac-TAGSCLRKFSTMGGRADARADARADARADA-NH2 [TAG, AcN-TAGSCLRKFSTM-GG-(RADA)4-CONH2]”, for which the “Secondary structure (CD)” value in series [1] is reported as “β-sheet”. For the same compound, in series [2], the “HAEC monolayer formation, peptide blends” value is “readily supported monolayer formation”; the “HAEC monolayer formation, Blending (9:1)” value is on record as “+”; the “HAEC monolayer formation, peptide content 100%” value is given as “−”. In addition, the “HAEC attachment to the surface” value in series [3] is listed as about 100%. In addition, the “nitric oxide (NO) release by HAEC” value in series [4] is “promote NO release”.
On to “AcN-KLDLKLDLKLDL-CONH2 (Ac-KLDLKLDLKLDL-NH2) [KLD12]”, for which, in series [5], the “chondrocyte phenotype in hydrogel” value was “retained their morphology and developed a cartilage-like, mechanically functional ECM rich in proteoglycans and type-II collagen”.
For the compound CSRARKQAASIKVAVSADR, the Biological activity entry in series [6] is on record as “vessel formation”.
On to KAFDITYVRLKF, for which the Biological activity entry in series [6] is on record as “neurite outgrowth”.
Take PDGSR: in series [6], the Biological activity result is given as “Cell adhesion”.
